The results in this text go back to patent US20230322785A1, “ADENOSINE A2A AND A2B RECEPTOR DUAL ANTAGONISTS FOR IMMUNO-ONCOLOGY” (Merck Sharp & Dohme LLC, priority 2020, published 2023).

The assay deals with T1, human A2A adenosine receptor (Homo sapiens, UniProt P29274).
T1 construct: expressed in transfected cells; host or cells: HEK293 or CHO cells
As to the kind of experiment: A2A binding affinity, Method (B): scintillation proximity assay (SPA) with [3H]SCH58261. To be noted: membranes of HEK293 or CHO cells expressing the human receptor. From the text:
Method (A) describes the procedure used to measure A2A binding affinity using radioligand binding. Method (B) describes the procedure used to measure A2A binding affinity using SPA technology. The method used to measure A2B binding affinity is also described below. The method used to determine the A2A IC50 value reported for each compound in the table is indicated next to the reported value. The A2B IC50 value measured using the A2B binding affinity assay is shown in the table next to the compound under the corresponding A2A value.
The A2A receptor affinity binding assay measured the amount of binding of a tritiated ligand with high affinity for the A2A adenosine receptor to membranes made from HEK293 or CHO cells recombinantly expressing the human A2A adenosine receptor, in the presence of varying concentrations of a compound of the invention. The data were generated using either filtration binding or a homogenous scintillation proximity assay (SPA).
Method (B): Measurement of A2A Binding Affinity Using SPA
Binding affinity using SPA was conducted as follows. Test compounds (50 nL) were dispensed into individual wells of a 384-well OptiPlate™ well (Perkin Elmer) by Echo® acoustic liquid transfer (Labcyte). 20 µL of 1.25 nM [^3H] SCH58261 ((7-(2-phenylethyl)-5-amino-2-(2-furyl)-pyrazolo-[4,3-e]-1,2,4-triazolo[1,5-c]pyrimidine)) in DPBS assay buffer (Dulbecco’s phosphate buffered saline without calcium and magnesium, ThermoFisher Scientific, Cat. No. A1285601) supplemented with 10 mM MgCl2 was added. A2A receptor-expressing membranes were incubated with 20 µg/mL adenosine deaminase (Roche, Cat. No. 10 102 105 001) for 15 min at room temperature. The receptor-expressing membranes were then combined with wheat germ agglutinin-coated yttrium silicate SPA beads (GE Healthcare, Cat. No. RPNQ0023) in a ratio of […] (w/w) and incubated for 30 min at room temperature. 30 µL of the membrane/bead mixture (0.25 µg and 25 µg per well respectively) were added to the 384-well OptiPlate™ well. To define total and non-specific binding, wells containing 1% DMSO or 1 µM CGS 15943 (Tocris Bioscience, Cat. No. 1699) respectively were also included in the experiment. The plate was incubated for 1 h at room temperature with agitation. The assay plate was then incubated for an h to allow the beads to settle before data were collected using a TopCount® (Perkin Elmer) scintillation counter. After normalization to total and non-specific binding, the percent effect at each compound concentration was calculated. The plot of percent effect versus the log of compound concentration was analyzed electronically using a 4-parameter logistic fit based on the Levenberg-Marquardt algorithm to generate IC50 values.
A general note: Scintillation proximity formats need no separation of bound from free tracer.

T1 sequence (P29274 whole entry): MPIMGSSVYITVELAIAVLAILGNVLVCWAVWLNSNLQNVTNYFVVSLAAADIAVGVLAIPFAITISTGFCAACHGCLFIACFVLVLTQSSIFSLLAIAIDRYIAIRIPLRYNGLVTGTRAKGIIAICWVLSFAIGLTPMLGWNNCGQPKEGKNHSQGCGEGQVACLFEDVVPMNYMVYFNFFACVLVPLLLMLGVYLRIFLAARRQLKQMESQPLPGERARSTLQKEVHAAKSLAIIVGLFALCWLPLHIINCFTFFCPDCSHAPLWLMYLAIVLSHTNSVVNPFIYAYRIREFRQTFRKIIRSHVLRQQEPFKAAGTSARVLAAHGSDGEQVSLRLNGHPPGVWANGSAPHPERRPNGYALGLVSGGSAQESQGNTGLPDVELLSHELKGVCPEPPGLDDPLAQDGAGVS

As usually defined, the IC50 is the concentration that gives 50% inhibition. Higher therefore signals weaker potency in that assay. In turn, `COc1cccc2c1nc(N)n1nc(CN(CCC(F)(F)F)CC3CCN(c4ncc(F)cn4)CC3)nc21` [Example 14.4, 2-((((1-(5-fluoropyrimidin-2-yl)piperidin-4-yl)methyl)(3,3,3-trifluoropropyl)amino)methyl)-7-methoxy-[1,2,4]triazolo[1,5-c]quinazolin-5-amine] came in with an IC50 of 38.2 nM.
The compound `COc1cccc2c1nc(N)n1nc(CN(Cc3cccc(Br)n3)CC3CC3)nc21` [Example 16.3, 2-((((6-bromopyridin-2-yl)methyl)(cyclopropylmethyl)amino)methyl)-7-methoxy-[1,2,4]triazolo[1,5-c]quinazolin-5-amine] came in with an IC50 of 14.6 nM. This IC50 lies about 2.6-fold lower than the previous one.
`COc1cccc2c1nc(N)n1nc(CNC(C)c3ncc(-c4ccc(F)cc4)o3)nc21` (single isomer, unassigned) [Example 10.15, (S or R)-2-(((1-(5-(4-fluorophenyl)oxazol-2-yl)ethyl)amino)methyl)-7-methoxy-[1,2,4]triazolo[1,5-c]quinazolin-5-amine] showed an IC50 of 44.3 nM.
Turning to `COc1cccc2c1nc(N)n1nc(CN(Cc3ccc(C(F)(F)F)nc3)CC3CC3)nc21` [Example 16.8, 2-(((cyclopropylmethyl)((6-(trifluoromethyl)pyridin-3-yl)methyl)amino)methyl)-7-methoxy-[1,2,4]triazolo[1,5-c]quinazolin-5-amine], the half-inhibitory concentration (IC50) was 24.1 nM. Compared with the last compound, the IC50 is about 1.8-fold lower.
Compound `COc1cccc2c1nc(N)n1nc(CCNCc3ccccc3C(F)(F)F)nc21` [Example 22.6, 7-methoxy-2-(2-((2-(trifluoromethyl)benzyl)amino)ethyl)-[1,2,4]triazolo[1,5-c]quinazolin-5-amine] displayed an IC50 of 9.7 nM.
For the compound `COc1cccc2c1nc(N)n1nc(CN(Cc3ccc(C(F)(F)F)cc3)C[C@@H]3CO3)nc21` [Example 18.1, (R)-7-methoxy-2-(((oxiran-2-ylmethyl)(4-(trifluoromethyl)benzyl)amino)methyl)-[1,2,4]triazolo[1,5-c]quinazolin-5-amine], the IC50 turned out to be 20.2 nM.
`COc1cccc2c1nc(N)n1nc(CCCNCc3ccc(S(F)(F)(F)(F)F)cc3)nc21` [Example 10.7, 7-methoxy-2-(3-((4-(pentafluoro-λ^6-sulfaneyl)benzyl)amino)propyl)-[1,2,4]triazolo[1,5-c]quinazolin-5-amine] came in with an IC50 of 45.2 nM.
For the compound `COc1cccc2c1nc(N)n1nc(CNCc3ccc(C(F)(F)F)cc3)nc21` [Example 7.1, 7-methoxy-2-(((4-(trifluoromethyl)benzyl)amino)methyl)-[1,2,4]triazolo[1,5-c]quinazolin-5-amine], the IC50 is 8.9 nM.
In turn, `COc1cccc2c1nc(N)n1nc(CN(Cc3ccc(OC(F)(F)F)cc3)CC3CC3)nc21` [Example 15.7, 2-(((cyclopropylmethyl)(4-(trifluoromethoxy)benzyl)amino)methyl)-7-methoxy-[1,2,4]triazolo[1,5-c]quinazolin-5-amine] displayed an IC50 of 3.9 nM.
`COc1cccc2c1nc(N)n1nc(CN(Cc3ccc(C(F)(F)F)cc3)C3CC3)nc21` [Example 8.9, 2-((cyclopropyl(4-(trifluoromethyl)benzyl)amino)methyl)-7-methoxy-[1,2,4]triazolo[1,5-c]quinazolin-5-amine] registered an IC50 of 2.5 nM.
On to `COc1cccc2c1nc(N)n1nc(CN(Cc3ccc(F)c(F)c3F)CC3CC3)nc21` [Example 16.17, 2-(((cyclopropylmethyl)(2,3,4-trifluorobenzyl)amino)methyl)-7-methoxy-[1,2,4]triazolo[1,5-c]quinazolin-5-amine], for which the IC50 came out at 4.8 nM.
Take `CCN(CC)Cc1nc2c3cccc(OC)c3nc(N)n2n1` [Example 5.3, 2-((diethylamino)methyl)-7-methoxy-[1,2,4]triazolo[1,5-c]quinazolin-5-amine]: the half-maximal inhibitory concentration (IC50) came out at 24.4 nM.
Regarding `COc1cccc2c1nc(N)n1nc(CN(Cc3ccc(C(F)(F)F)cc3)CC3CC3)nc21` [Example 15.2, 2-(((cyclopropylmethyl)(4-(trifluoromethyl)benzyl)amino)methyl)-7-methoxy-[1,2,4]triazolo[1,5-c]quinazolin-5-amine], the IC50 turned out to be 3 nM.
In turn, `COc1cccc(CN(Cc2nc3c4cccc(OC)c4nc(N)n3n2)CC2CC2)c1` [Example 16.15, 2-(((cyclopropylmethyl)(3-methoxybenzyl)amino)methyl)-7-methoxy-[1,2,4]triazolo[1,5-c]quinazolin-5-amine] had an IC50 of 3.5 nM.
As to `COc1cccc2c1nc(N)n1nc(CNCc3ccc(OC(F)(F)F)cc3)nc21` [Example 8.6, 7-methoxy-2-(((4-(trifluoromethoxy)benzyl)amino)methyl)-[1,2,4]triazolo[1,5-c]quinazolin-5-amine], the 50% inhibitory concentration (IC50) stood at 8.9 nM.
In turn, `COc1cccc2c1nc(N)n1nc(CN[C@H](C)[C@@H](O)c3cc(C(F)(F)F)cc(C(F)(F)F)c3)nc21` [Example 10.1, (1S,2R)-2-(((5-amino-7-methoxy-[1,2,4]triazolo[1,5-c]quinazolin-2-yl)methyl)amino)-1-(3,5-bis(trifluoromethyl)phenyl)propan-1-ol] displayed an IC50 of 40.2 nM.
`Nc1nc2c(F)cc(F)cc2c2nc(CCNCc3ccc(C(F)(F)F)cc3)nn12` [Example 10.2, 7,9-difluoro-2-(2-((4-(trifluoromethyl)benzyl)amino)ethyl)-[1,2,4]triazolo[1,5-c]quinazolin-5-amine]: the IC50 stood at 110 nM.
In turn, `COc1cccc2c1nc(N)n1nc(CNC(C)(C)C(F)(F)F)nc21` [Example 10.10, 7-methoxy-2-(((1,1,1-trifluoro-2-methylpropan-2-yl)amino)methyl)-[1,2,4]triazolo[1,5-c]quinazolin-5-amine] displayed an IC50 of 4.8 nM. Compared with the last compound, the IC50 is about 23-fold lower.
`COc1ccc(CN(Cc2nc3c4cccc(OC)c4nc(N)n3n2)CC2CC2)cn1` [Example 16.5, 2-(((cyclopropylmethyl)((6-methoxypyridin-3-yl)methyl)amino)methyl)-7-methoxy-[1,2,4]triazolo[1,5-c]quinazolin-5-amine]: the IC50 stood at 9.2 nM.
Then `COc1cccc2c1nc(N)n1nc(CN(Cc3cccc4ncccc34)CC3CC3)nc21` [Example 16.16, 2-(((cyclopropylmethyl)(quinolin-5-ylmethyl)amino)methyl)-7-methoxy-[1,2,4]triazolo[1,5-c]quinazolin-5-amine], with 3.5 nM.
Then `COc1cccc2c1nc(N)n1nc(CN(Cc3ccc(C(F)(F)F)cc3)C(=O)NC(C)C)nc21` [Example 20.2, 1-((5-amino-7-methoxy-[1,2,4]triazolo[1,5-c]quinazolin-2-yl)methyl)-3-isopropyl-1-(4-(trifluoromethyl)benzyl)urea], with 50.7 nM; and `COc1cccc2c1nc(N)n1nc(CN(Cc3ccc(OC(F)(F)F)cc3)CC3CCCC3)nc21` [Example 15.9, 2-(((cyclopentylmethyl)(4-(trifluoromethoxy)benzyl)amino)methyl)-7-methoxy-[1,2,4]triazolo[1,5-c]quinazolin-5-amine], with 123 nM.
Then `COc1cccc2c1nc(N)n1nc(CN[C@H](C)C3CC3)nc21` [Example 7.8, (R)-2-(((1-cyclopropylethyl)amino)methyl)-7-methoxy-[1,2,4]triazolo[1,5-c]quinazolin-5-amine], with 12 nM; and `COc1cccc2c1nc(N)n1nc(CCNCc3ccc(C(F)(F)F)cc3)nc21` [Example 22.3, 7-methoxy-2-(2-((4-(trifluoromethyl)benzyl)amino)ethyl)-[1,2,4]triazolo[1,5-c]quinazolin-5-amine], with 16.7 nM.
Take `COCc1ccc(CNCc2nc3c4cccc(OC)c4nc(N)n3n2)cc1` [Example 7.7, 7-methoxy-2-(((4-(methoxymethyl)benzyl)amino)methyl)-[1,2,4]triazol[1,5-c]quinazolin-5-amine]: the half-inhibitory concentration (IC50) amounted to 2.2 nM.
On to `COc1cccc2c1nc(N)n1nc(CN(CC(F)F)CC3CC3)nc21` [Example 17.1, 2-(((cyclopropylmethyl)(2,2-difluoroethyl)amino)methyl)-7-methoxy-[1,2,4]triazolo[1,5-c]quinazolin-5-amine], for which the half-maximal inhibitory concentration (IC50) is 2.5 nM.
Take `COc1cccc2c1nc(N)n1nc(CNCc3ccccc3C(F)(F)F)nc21` [Example 8.4, 7-methoxy-2-(((2-(trifluoromethyl)benzyl)amino)methyl)-[1,2,4]triazolo[1,5-c]quinazolin-5-amine]: the IC50 was determined as 3.2 nM.
